According to US20240189278A1, “NOVEL COMPOUNDS AND METHODS FOR INCREASING KLOTHO GENE EXPRESSION” (Klotho Therapeutics, Inc., priority 2017, published 2024):

Tests used:
Klotho gene expression = assay: Luciferase reporter assay to evaluate Klotho gene expression changes; type: cell-based; settings: overnight incubation, luciferase luminescence
Method: Table 2. Luciferase Reporter Assay to Evaluate Klotho Gene Expression Changes
HEK293 cells/pKlotho_Luc in suspension (20 μl/well, density 0.25×10^6 cells/ml) were dispensed into assay-ready 384-well tissue culture treated plates (plates (BD BioCoat Poly-D-Lys coated, Cat.354661) preloaded with 1000× stock of test compounds in DMSO (20 nL/well, 10 concentration points, 3× dilutions from 20 uM to 0.001 uM). Growth medium: DMEM, 1% FBS, Pen/Strep, 600 ug/ml G418. Negative control: DMSO. Positive control: 2 uM Compound H from King, et. al. Biochem. J. (2012) 441, 453-461. Cells were incubated in CO2 incubator overnight. At the end of the incubation time, 20 ul/well of the luciferase assay solution (Steady-Luc Firefly HTS Assay Biotium, Cat 30028) were added to the plate and mixed on a VibraTranslator (Union Scientific). Plates were incubated for 5 min at 25° C. Steady glow luminescence signal was read using a BMG Labtech PHERAstar FSX reader.

aged male Wistar rats = assay: Aged rat efficacy model, blood pressure by tail-cuff method; type: in vivo
Method: The aim of the study was to assess the efficacy of test compound in improving physiologic parameters in aged rats such as blood pressure values. The experiment included daily repeated administrations of the test compound for 14 consecutive days and follow up observations within a […] post-dosing period. Body weight (BWt) were monitored daily during the dosing period and twice a week during the post-dosing period. Blood pressure (BP) was measured on 0, 7th, 14th, 21s t and 28th day of the study. Study design, animal selection, handling and treatment were all in accordance with the CROs efficacy study protocols and Standard Operation Procedure, and the Animal Care Guidelines.
Fifteen aged male Wistar rats (22.5 months old; initial body weights ranged from 474.8 g to 672.4 g with an average body weight across the groups of 540.8 g) were randomized into two groups by body weight and systolic blood pressure: 11 animals distributed to compound 49-treated group and 4 animals—to vehicle-treated group. […]
Blood pressure was measured by the Tail-Cuff Method using the Coda Non-invasive Blood-Pressure System. Individual body weights and relative changes in body weight (compared to the appropriate weight on Day 0) were recorded.

[1] = Homo sapiens, HEK293, HEK293 cells/pKlotho_Luc

Structure (SMILES): C1=CCC(CNc2ncnc3c2ncn3C2CC2)CC1 (stereo not drawn) [Compound 1, N-[(cyclohex-3-en-1-yl)methyl]-9-cyclopropyl-9H-purin-6-amine]
- Activation, % (Klotho gene expression; HEK293 cells/pKlotho_Luc): 149%
- EC50 (Klotho gene expression; [1]): 60 nM

Structure (SMILES): C1=C(CCNc2ncnc3[nH]ccc23)CCCCC1 [Compound 2, N-[2-(cyclohept-1-en-1-yl)ethyl]-7H-pyrrolo[2,3-d]pyrimidin-4-amine]
- Activation, % (Klotho gene expression; HEK293 cells/pKlotho_Luc): 94%
- EC50 (Klotho gene expression; [1]): 70 nM

Structure (SMILES): C1=C(CCNc2cc(N3CCCC3)ncn2)CCCC1 [Compound 3]
- Activation, % (Klotho gene expression; HEK293 cells/pKlotho_Luc): 138%
- EC50 (Klotho gene expression; [1]): 100 nM

Structure (SMILES): Fc1ccccc1-n1ncc2c(NCCC3=CCCCC3)ncnc21 [Compound 4]
- Activation, % (Klotho gene expression; HEK293 cells/pKlotho_Luc): 105%
- EC50 (Klotho gene expression; [1]): 120 nM

Structure (SMILES): Fc1ccccc1-n1ncc2c(NCCC3=CCCCCC3)ncnc21 [Compound 5]
- Activation, % (Klotho gene expression; HEK293 cells/pKlotho_Luc): 61%
- EC50 (Klotho gene expression; [1]): 120 nM

Structure (SMILES): C1=C(CCNc2cc(N3CCCCC3)ncn2)CCCC1 [Compound 6]
- Activation, % (Klotho gene expression; HEK293 cells/pKlotho_Luc): 98%
- EC50 (Klotho gene expression; [1]): 140 nM

Structure (SMILES): C1=C(CCNc2ncnc3[nH]ccc23)CCCC1 [Compound 7]
- Activation, % (Klotho gene expression; HEK293 cells/pKlotho_Luc): 150%
- EC50 (Klotho gene expression; [1]): 160 nM

Structure (SMILES): Cc1csc2ncnc(NCCC3=CCCCC3)c12 [Compound 8]
- Activation, % (Klotho gene expression; HEK293 cells/pKlotho_Luc): 145%
- EC50 (Klotho gene expression; [1]): 160 nM

Structure (SMILES): C1=C(CCNc2ncnc3sccc23)CCCCC1 [Compound 9]
- Activation, % (Klotho gene expression; HEK293 cells/pKlotho_Luc): 81%
- EC50 (Klotho gene expression; [1]): 180 nM

Structure (SMILES): Nc1c(NCCC2=CCCCCC2)ncnc1-n1cccn1 [Compound 10]
- Activation, % (Klotho gene expression; HEK293 cells/pKlotho_Luc): 98%
- EC50 (Klotho gene expression; [1]): 200 nM

Structure (SMILES): Nc1c(NCCC2=CCCCC2)ncnc1-n1cccn1 [Compound 11]
- Activation, % (Klotho gene expression; HEK293 cells/pKlotho_Luc): 125%
- EC50 (Klotho gene expression; [1]): 210 nM

Structure (SMILES): Cc1csc2ncnc(NCCC3=CCCCCC3)c12 [Compound 12]
- Activation, % (Klotho gene expression; HEK293 cells/pKlotho_Luc): 98%
- EC50 (Klotho gene expression; [1]): 210 nM

Structure (SMILES): Fc1cccc2ncnc(NCCC3=CCCCC3)c12 [Compound 13]
- Activation, % (Klotho gene expression; HEK293 cells/pKlotho_Luc): 86%
- EC50 (Klotho gene expression; [1]): 250 nM

Structure (SMILES): N#CCCn1ncc2c(NCCC3=CCCCCC3)ncnc21 [Compound 14]
- Activation, % (Klotho gene expression; HEK293 cells/pKlotho_Luc): 122%
- EC50 (Klotho gene expression; [1]): 260 nM

Structure (SMILES): C1=C(CCNc2ncnc3c2cnn3-c2ccccc2)CCCC1 [Compound 15]
- Activation, % (Klotho gene expression; HEK293 cells/pKlotho_Luc): 203%
- EC50 (Klotho gene expression; [1]): 270 nM

Structure (SMILES): CCn1ncc2c(NCCC3=CCCCC3)ncnc21 [Compound 16]
- Activation, % (Klotho gene expression; HEK293 cells/pKlotho_Luc): 151%
- EC50 (Klotho gene expression; [1]): 370 nM

Structure (SMILES): CN(CCC1CCCCC1)c1ncnc2c1ncn2C1CC1 [Compound 17]
- Activation, % (Klotho gene expression; HEK293 cells/pKlotho_Luc): 114%
- EC50 (Klotho gene expression; [1]): 380 nM

Structure (SMILES): Cc1cc2c(NCCC3=CCCCCC3)ncnc2s1 [Compound 18]
- Activation, % (Klotho gene expression; HEK293 cells/pKlotho_Luc): 48%
- EC50 (Klotho gene expression; [1]): 450 nM

Structure (SMILES): C1=CCC(CCNc2ncnc3c2ncn3C2CC2)CC1 (stereo not drawn) [Compound 19]
- Activation, % (Klotho gene expression; HEK293 cells/pKlotho_Luc): 152%
- EC50 (Klotho gene expression; [1]): 500 nM

Structure (SMILES): N#CCCn1ncc2c(NCCC3=CCCCC3)ncnc21 [Compound 20]
- Activation, % (Klotho gene expression; HEK293 cells/pKlotho_Luc): 120%
- EC50 (Klotho gene expression; [1]): 600 nM

Structure (SMILES): Cc1cc2c(NCCC3=CCCCC3)ncnc2s1 [Compound 21]
- Activation, % (Klotho gene expression; HEK293 cells/pKlotho_Luc): 133%
- EC50 (Klotho gene expression; [1]): 680 nM

Structure (SMILES): C1=C(CCNc2ncnc3c2cnn3-c2ccccc2)CCCCC1 [Compound 22]
- Activation, % (Klotho gene expression; HEK293 cells/pKlotho_Luc): 96%
- EC50 (Klotho gene expression; [1]): 770 nM

Structure (SMILES): C1=C(CCNc2ncnc3sccc23)CCCC1 [Compound 23]
- Activation, % (Klotho gene expression; HEK293 cells/pKlotho_Luc): 133%
- EC50 (Klotho gene expression; [1]): 850 nM

Structure (SMILES): C1=C(CCNc2ncnc3ccsc23)CCCCC1 [Compound 24]
- Activation, % (Klotho gene expression; HEK293 cells/pKlotho_Luc): 122%
- EC50 (Klotho gene expression; [1]): 880 nM

Structure (SMILES): CCn1ncc2c(NCCC3CC=CCC3)ncnc21 (stereo not drawn) [Compound 26]
- Activation, % (Klotho gene expression; HEK293 cells/pKlotho_Luc): 121%
- EC50 (Klotho gene expression; [1]): 920 nM

Structure (SMILES): C1=C(CCNc2ncnc3scnc23)CCCCC1 [Compound 27]
- Activation, % (Klotho gene expression; HEK293 cells/pKlotho_Luc): 101%
- EC50 (Klotho gene expression; [1]): 920 nM

Structure (SMILES): CCC1(CC)CCCN(c2ncnc3c2ncn3C2CC2)CC1 [Compound 28]
- Activation, % (Klotho gene expression; HEK293 cells/pKlotho_Luc): 101%
- EC50 (Klotho gene expression; [1]): 1000 nM

Structure (SMILES): C1=C(CCNc2ncnc3scnc23)CCCC1 [Compound 29]
- Activation, % (Klotho gene expression; HEK293 cells/pKlotho_Luc): 103%
- EC50 (Klotho gene expression; [1]): 1100 nM

Structure (SMILES): c1nc(NCCC2CCCC2)c2ncn(C3CC3)c2n1 [Compound 30]
- Activation, % (Klotho gene expression; HEK293 cells/pKlotho_Luc): 87%
- EC50 (Klotho gene expression; [1]): 1200 nM

Structure (SMILES): c1nc(NCCC2CCCCC2)c2ncn(C3CC3)c2n1 [Compound 31]
- Activation, % (Klotho gene expression; HEK293 cells/pKlotho_Luc): 109%
- EC50 (Klotho gene expression; [1]): 1100 nM

Structure (SMILES): CC(C)CCNc1ncnc2c1ncn2C1CC1 [Compound 32]
- Activation, % (Klotho gene expression; HEK293 cells/pKlotho_Luc): 77%
- EC50 (Klotho gene expression; [1]): 730 nM

Structure (SMILES): c1nc(NCC2CCCCC2)c2ncn(C3CC3)c2n1 [Compound 33]
- Activation, % (Klotho gene expression; HEK293 cells/pKlotho_Luc): 89%
- EC50 (Klotho gene expression; [1]): 380 nM

Structure (SMILES): Clc1cccc(CNc2ncnc3c2ncn3C2CC2)c1 [Compound 34]
- Activation, % (Klotho gene expression; HEK293 cells/pKlotho_Luc): 102%
- EC50 (Klotho gene expression; [1]): 2000 nM

Structure (SMILES): CC(C)CNc1ncnc2c1ncn2C1CC1 [Compound 35]
- Activation, % (Klotho gene expression; HEK293 cells/pKlotho_Luc): 40%
- EC50 (Klotho gene expression; [1]): 1500 nM

Structure (SMILES): c1nc(NCC2CCC2)c2ncn(C3CC3)c2n1 [Compound 36]
- Activation, % (Klotho gene expression; HEK293 cells/pKlotho_Luc): 68%
- EC50 (Klotho gene expression; [1]): 830 nM

Structure (SMILES): C1=C(CCNc2ncnc3c2ncn3C2CC2)CCCC1 [Compound 37]
- Activation, % (Klotho gene expression; HEK293 cells/pKlotho_Luc): 103%
- EC50 (Klotho gene expression; [1]): 70 nM

Structure (SMILES): C1=C(CCNc2ncnc3c2ncn3C2CC2)CCCCC1 [Compound 38]
- Activation, % (Klotho gene expression; HEK293 cells/pKlotho_Luc): 105%
- EC50 (Klotho gene expression; [1]): 340 nM

Structure (SMILES): CC1(CNc2ncnc3c2ncn3C2CC2)CCCCC1 [Compound 39]
- Activation, % (Klotho gene expression; HEK293 cells/pKlotho_Luc): 77%
- EC50 (Klotho gene expression; [1]): 3600 nM

Structure (SMILES): CC1(CNc2ncnc3c2ncn3C2CC2)CCCC1 [Compound 40]
- Activation, % (Klotho gene expression; HEK293 cells/pKlotho_Luc): 89%
- EC50 (Klotho gene expression; [1]): 2900 nM

Structure (SMILES): c1ccc([C@@H]2C[C@H]2Nc2ncnc3c2ncn3C2CC2)cc1 [Compound 41]
- EC50 (Klotho gene expression; [1]): > 30000 nM

Structure (SMILES): C1=C(CCNc2ncnc3c2ncn3C2CC2)CCC1 [Compound 42]
- Activation, % (Klotho gene expression; HEK293 cells/pKlotho_Luc): 79%
- EC50 (Klotho gene expression; [1]): 620 nM

Structure (SMILES): Clc1ccc(CNc2ncnc3c2ncn3C2CC2)cc1Cl [Compound 43]
- EC50 (Klotho gene expression; [1]): > 30000 nM

Structure (SMILES): CC(C)(CNc1ncnc2c1ncn2C1CC1)C1=CCCCC1 [Compound 44]
- Activation, % (Klotho gene expression; HEK293 cells/pKlotho_Luc): 58%
- EC50 (Klotho gene expression; [1]): 23800 nM

Structure (SMILES): CC1(C)CCC(CNc2ncnc3c2ncn3C2CC2)CC1 [Compound 45]
- Activation, % (Klotho gene expression; HEK293 cells/pKlotho_Luc): 59%
- EC50 (Klotho gene expression; [1]): 13100 nM

Structure (SMILES): c1nc(NCC23CCC(CC2)CC3)c2ncn(C3CC3)c2n1 [Compound 46]
- Activation, % (Klotho gene expression; HEK293 cells/pKlotho_Luc): 86%
- EC50 (Klotho gene expression; [1]): 1700 nM

Structure (SMILES): FC1(CNc2ncnc3c2ncn3C2CC2)CCCCC1 [Compound 47]
- Activation, % (Klotho gene expression; HEK293 cells/pKlotho_Luc): 86%
- EC50 (Klotho gene expression; [1]): 900 nM

Structure (SMILES): C1=CC[C@@H](CNc2ncnc3c2ncn3C2CC2)CC1 [Compound 48]
- Activation, % (Klotho gene expression; HEK293 cells/pKlotho_Luc): 86%
- EC50 (Klotho gene expression; [1]): 160 nM

Structure (SMILES): C1=CC[C@@H](CNc2ncnc3c2ncn3C2CC2)CC1 [Compound 49]
- Activation, % (Klotho gene expression; HEK293 cells/pKlotho_Luc): 90%
- EC50 (Klotho gene expression; HEK293 cells/pKlotho_Luc): 100 nM
- Systolic blood pressure within the treated group during the study (aged male Wistar rats; 50 mg/kg PO daily for 14 days, 28-day study): considerable decrease
- Systolic blood pressure, treated group vs vehicle-treated group (aged male Wistar rats; 50 mg/kg PO daily, Day 14): Significant difference
